Legend:
[1] = tested on: porcine neuronal tubulin; assay: Tubulin Polymerization Assay; format: biochemical; details: porcine tubulin 2.0 mg/ml, 37° C., fluorescence; read-out: IC50 (tubulin polymerization, from Vmax)
From the text: Tubulin Polymerization Assay
The Tubulin Polymerization Assay uses porcine neuronal tubulin and measurements are based on fluorescence enhancement due to the incorporation of a fluorescent reporter into microtubules as polymerization occurs. The assay generates a polymerization curve representing the three phases of microtubule formation (nucleation, growth and equilibrium). IC50 values for tested compounds can be generated from the observed polymerization curves.
Procedure: All compounds dilutions (in DMSO) were prepared prior to the following steps. A Molecular Devices M2 plate reader was set to 37° C. Once the internal temperature of the plate reader reached 37° C. a 96 well plate (Corning Costar, at. #3686) was placed in the fluorimeter and allowed to warm to 37° C. for 30 minutes. A total of 10 mg of porcine tubulin was resuspended in […] of Polymerization Buffer [Buffer 1 (80 mM PIPES pH 6.9, 2.0 mM MgCl2, 0.5 mM EGTA, 1.0 mM GTP and 10 μM fluorescent reporter) supplemented with 20% glycerol] to generate a 2.0 mg/ml tubulin stock and this was kept on ice. The 50× compound stocks in 100% DMSO were spotted 1 μl/well in duplicate into the wells of the 96-well plate at 37° C. and allowed to re-warm for 5 minutes at 37° C. During this incubation the 2.0 mg/ml tubulin stock was placed in a disposable plastic trough and allowed to warm briefly at room temperature. To initiate the reaction, 50 μl/well of 2.0 mg/ml tubulin in Polymerization Buffer was added to each well using a multi-channel pipettor and the fluorescence measurements were started immediately.
The maximal velocity (Vmax) of tubulin polymerization was determined using linear regression of the averaged fluorescence data at each time point using GraphPad Prism 5.0 software. The Vmax determinations for each compound at each concentration were then normalized to reactions that contained DMSO (2% final concentration) but no test compounds. This converted the data to % Activity, which refers to the percent of the Vmax of an uninhibited reaction. The concentration response curves were then plotted as the % Activity versus the Log 10 of the compound concentration in micromolar and fit by non-linear regression to a 4-parameter sigmoidal dose-response equation using GraphPad Prism 5.0 software to determine the IC50 for each compound.

[2] = tested on: MCF-7 cells; assay: Cell Viability Assay (ATPlite 1step), MCF-7; format: cell-based; details: Homo sapiens, MCF7, 72 hours; for percent inhibition of cell viability at 4 µM: MCF-7, 4 uM compound, read-out: Cell Viability % inhibition MCF-7 (4 uM Cpd); for percent inhibition of cell viability at 20 µM: MCF-7, 20 uM compound, read-out: Cell Viability % inhibition MCF-7 (20 uM Cpd)
Procedure: Cell Viability Assay Protocol
Cells were trypsinized, counted, and re-seeded into a 384-well tissue culture plate at 1000 cells per well in […] media. Cells were incubated at 37° C. in an atmosphere of 5% CO2 for 24 hours. Experimental compounds, initially dissolved in DMSO and diluted further in media were added to the wells and incubated for 72 hours. Cell viability was measured using the ATPlite 1step Luminescence Detection Assay system (Perkin Elmer) as described in the Assay kit instructions.
Cell Culture Lines and Media: (1) A2780 cells were cultured in RPMI media with 10% FBS and 1% antibiotics. Cells were typically split every 3-5 days at a 1:10 dilution; (2) PC3 cells were cultured in RPMI media with 10% FBS and 1% antibiotics. Cells were typically split every 3-5 days at a 1:4 dilution; (3) MCF-7 cells were grown in K-12F media with 10% FBS and 1% antibiotics. Cells were typically split every 3-5 days at a 1:10 dilution.

[3] = tested on: A2780 cells; assay: Cell Viability Assay (ATPlite 1step), A2780; format: cell-based; details: Homo sapiens, 72 hours; for percent inhibition of cell viability at 4 µM: A2780, 4 uM compound, read-out: Cell Viability % inhibition A2780 (4 uM Cpd); for percent inhibition of cell viability at 20 µM: A2780, 20 uM compound, read-out: Cell Viability % inhibition A2780 (20 uM Cpd)
Procedure, shortened: (§1)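 Cells seeded at 1000/well, grown 24 h at 37 °C/5% CO2, then exposed to compounds (DMSO stock diluted in media) for 72 h; viability read by ATPlite 1step luminescence. A2780 and PC3 in RPMI, MCF-7 in K-12F, each with 10% FBS.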

[4] = tested on: PC3 cells; assay: Cell Viability Assay (ATPlite 1step), PC3; format: cell-based; details: Homo sapiens, PC-3, 72 hours; for percent inhibition of cell viability at 4 µM: PC3, 4 uM compound, read-out: Cell Viability % inhibition PC3 (4 uM Cpd); for percent inhibition of cell viability at 20 µM: PC3, 20 uM compound, read-out: Cell Viability % inhibition PC3 (20 uM Cpd)
Procedure, shortened: as §1

| IC50 [1] | Compound | percent inhibition of cell viability at 4 µM [2] | percent inhibition of cell viability at 20 µM [2] | percent inhibition of cell viability at 4 µM [3] | percent inhibition of cell viability at 20 µM [3] | percent inhibition of cell viability at 4 µM [4] | percent inhibition of cell viability at 20 µM [4] |
| --- | --- | --- | --- | --- | --- | --- | --- |
| 0.26 µM | Cc1ncc(C(=O)Nc2ccc(-c3ccsc3)cn2)cn1 [Compound 61, 2-methyl-N-[5-(thiophen-3-yl)pyridin-2-yl]pyrimidine-5-carboxamide] | 73.3% | 72.9% | 86.5% | 89.7% | 58.3% | 70.6% |
| 3.84 µM | Cc1ncc(C(=O)Nc2ncc(-c3cccc(OC4CC4)c3)cc2F)cn1 [Compound 66, N-{5-[3-(cyclopropyloxy)phenyl]-3-fluoropyridin-2-yl}-2-methylpyrimidine-5-carboxamide] | 75% | 76% | 89% | 88.4% | 66% | 70.6% |
| 2.35 µM | Cc1ncc(C(=O)Nc2ncc(-c3ccsc3)cc2F)cn1 [Compound 69, N-[3-fluoro-5-(thiophen-3-yl)pyridin-2-yl]-2-methylpyrimidine-5-carboxamide] | 56.2% | 61.3% | 84.7% | 90.1% | 57.6% | 64.5% |
| 1.45 µM | O=C(Nc1ccc(-c2cccc(Cl)c2)cn1)c1cncnc1 [Compound 3, N-[5-(3-chlorophenyl)pyridin-2-yl]pyrimidine-5-carboxamide] | 50.6% | 56.8% | 84.8% | 90.2% | 60.9% | 68.3% |

Second part, the compound before the results:

| Compound | IC50 [1] | percent inhibition of cell viability at 4 µM [2] | percent inhibition of cell viability at 20 µM [2] | percent inhibition of cell viability at 4 µM [3] | percent inhibition of cell viability at 20 µM [3] | percent inhibition of cell viability at 4 µM [4] | percent inhibition of cell viability at 20 µM [4] |
| --- | --- | --- | --- | --- | --- | --- | --- |
| Cc1ncc(C(=O)Nc2ncc(-c3cccc(C4CC4)c3)cc2F)cn1 [Compound 67, N-[5-(3-cyclopropylphenyl)-3-fluoropyridin-2-yl]-2-methylpyrimidine-5-carboxamide] | 2.42 µM | 60% | 63.7% | 87.1% | 87.9% | 56% | 61.6% |
| O=C(Nc1ccc(-c2ccccc2)cn1)c1cncnc1 [Compound 1] | 1.4 µM | 46.1% | 68.4% | 84.2% | 93.6% | 59.1% | 72.2% |
| Cc1ncc(C(=O)Nc2ccc(-c3cccc(S(=O)(=O)C4CC4)c3)cn2)cn1 [Compound 63, N-{5-[3-(cyclopropylsulfonyl)phenyl]pyridin-2-yl}-2-methylpyrimidine-5-carboxamide] | 0.24 µM | 59.1% | 65.1% | 85.6% | 88% | 61.4% | 67.6% |
